Results from patent publication US7153858B2, “Arylpiperazinyl compounds” (Epix Delaware, Inc., priority 2003, dated 2006).
Counter-ions that a name gives are not always drawn. Like-named read-outs stand apart in the source and are kept apart here.

Legend:
Type in all cases: binding
α2 = α2 cross-reactivity (% inhibition / Ki), Table 1
5-HT1A = biological target: T1, 5-HT1A (Homo sapiens, UniProt P08908); assay: 5-HT1A receptor affinity (Ki), Table 1
T1 sequence (P08908 1-422): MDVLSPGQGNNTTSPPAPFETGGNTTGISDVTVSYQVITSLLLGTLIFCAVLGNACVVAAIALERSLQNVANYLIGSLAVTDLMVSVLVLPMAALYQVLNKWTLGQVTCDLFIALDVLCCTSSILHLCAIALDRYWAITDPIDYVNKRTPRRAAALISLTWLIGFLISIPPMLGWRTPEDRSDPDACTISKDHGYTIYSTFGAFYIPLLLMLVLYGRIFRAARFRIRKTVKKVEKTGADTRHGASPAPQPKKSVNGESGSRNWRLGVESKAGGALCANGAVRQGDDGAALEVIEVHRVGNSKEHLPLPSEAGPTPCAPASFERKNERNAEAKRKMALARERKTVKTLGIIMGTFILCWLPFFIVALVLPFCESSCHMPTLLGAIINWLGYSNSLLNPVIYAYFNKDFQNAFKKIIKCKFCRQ

α1 = α1 cross-reactivity (% inhibition / Ki), Table 1

Row | α2 % inhibition (α2) | Ki (5-HT1A; read-out: 5-HT1A (Ki)) | α1 % inhibition (α1) | Ki (α2) | SMILES | Ki (5-HT1A; 5-HT1A (Ki)) | α2 % inhibition (α2; HCl salt) | α1 % inhibition (α1; HCl salt)
1 | 31% | 213 nM | 0% | – | CCC(=O)Nc1cccc(N2CCN(CCCCNS(=O)(=O)c3ccc(C)cc3)CC2)c1 [N-(3-{4-[4-(Toluene-4-sulfonylamino)-butyl]-piperazin-1-yl}-phenyl)-propionamide] | – | – | –
2 | 21% | 46 nM | 51% | – | Cc1ccc(S(=O)(=O)NCCCCN2CCN(c3cccc(NS(C)(=O)=O)c3)CC2)cc1 [N-{4-[4-(3-Methanesulfonylamino-phenyl)-piperazin-1-yl]-butyl}-4-methyl-benzenesulfonamide] | – | – | –
3 | 15% | 21 nM | 40% | – | Cc1ccc(S(=O)(=O)NCCCCN2CCN(c3cccc(NC(=O)C4CC4)c3)CC2)cc1 [Cyclopropanecarboxylic acid (3-{4-[4-(toluene-4-sulfonylamino)-butyl]-piperazin-1-yl}-phenyl)-amide] | – | – | –
4 | 12% | 47 nM | 47% | – | Cc1ccc(S(=O)(=O)NCCCCN2CCN(c3cccc(NC(=O)C(C)C)c3)CC2)cc1 [N-(3-{4-[4-(Toluene-4-sulfonylamino)-butyl]-piperazin-1-yl}-phenyl)-isobutyramide] | – | – | –
5 | <10% | 18 nM | 39% | – | CC(=O)Nc1cccc(N2CCN(CCCCNS(=O)(=O)c3ccc(F)cc3)CC2)c1 [N-(3-{4-[4-(4-Fluoro-benzenesulfonylamino)-butyl]-piperazin-1-yl}-phenyl)-acetamide] | – | – | –
6 | 12% | 56 nM | 12% | – | CCCC(=O)Nc1cccc(N2CCN(CCCCNS(=O)(=O)c3ccc(C)cc3)CC2)c1 [N-(3-{4-[4-(Toluene-4-sulfonylamino)-butyl]-piperazin-1-yl}-phenyl)-butyramide] | – | – | –
7 | <10% | 78 nM | 15% | – | Cc1ccc(S(=O)(=O)NCCCCN2CCN(c3cccc(NS(=O)(=O)C(C)C)c3)CC2)cc1 [4-Methyl-N-(4-{4-[3-(propane-2-sulfonylamino)-phenyl]-piperazin-1-yl}-butyl)-benzenesulfonamide] | – | – | –
8 | 14% | 141 nM | 47% | – | CCS(=O)(=O)Nc1cccc(N2CCN(CCCCNS(=O)(=O)c3ccc(C)cc3)CC2)c1 [N-{4-[4-(3-Ethanesulfonylamino-phenyl)-piperazin-1-yl]-butyl}-4-methyl-benzenesulfonamide] | – | – | –
9 | 11% | – | 0% | – | Cc1ccc(S(=O)(=O)NCCCCN2CCN(c3cccc(NC(=O)C(C)(C)C)c3)CC2)cc1 [2,2-Dimethyl-N-(3-{4-[4-(toluene-4-sulfonylamino)-butyl]-piperazin-1-yl}-phenyl)-propionamide] | – | – | –
10 | 90% | 40 nM | 98% | – | Cc1ccc(S(=O)(=O)NCCCCN2CCN(c3ccccc3)CC2)cc1 [4-Methyl-N-[4-(4-phenyl-piperazin-1-yl)-butyl]-benzenesulfonamide] | – | – | –

The next lines start with the compound.

Row | SMILES | α2 % inhibition (α2) | Ki (5-HT1A; read-out: 5-HT1A (Ki)) | α1 % inhibition (α1) | Ki (α2) | Ki (5-HT1A; 5-HT1A (Ki)) | α2 % inhibition (α2; HCl salt) | α1 % inhibition (α1; HCl salt)
11 | CC(=O)Nc1cccc(N2CCN(CC3CCN(S(=O)(=O)CC4CCCCC4)CC3)CC2)c1 [N-{3-[4-(1-Cyclohexylmethanesulfonyl-piperidin-4-ylmethyl)-piperazin-1-yl]-phenyl}-acetamide] | <10% | 10 nM | 13% | – | – | – | –
12 | CC(=O)Nc1cccc(N2CCNCC2)c1.Cl [N-(3-Piperazin-1-yl-phenyl)-acetamide HCl] | 35% | – | 0% | – | 2.9 nM | – | –
13 | CC(=O)Nc1cccc(N2CCN(CCCCNS(=O)(=O)C3CCCCC3)CC2)c1 [N-{3-[4-(4-Cyclohexanesulfonylamino-butyl)-piperazin-1-yl]-phenyl}-acetamide] | 12% | 40 nM | <10% | – | – | – | –
14 | CC(=O)Nc1cccc(N2CCN(CCCCNS(=O)(=O)C(C)C)CC2)c1 [N-(3-{4-[4-(Propane-2-sulfonylamino)-butyl]-piperazin-1-yl}-phenyl)-acetamide] | 12% | 24 nM | <10% | – | – | – | –
15 | CC(=O)Nc1cccc(N2CCN(CCCCNS(=O)(=O)CC(C)C)CC2)c1 [N-(3-{4-[4-(2-Methyl-propane-1-sulfonylamino)-butyl]-piperazin-1-yl}-phenyl)-acetamide] | 0% | 11 nM | 5% | – | – | – | –
16 | CC(=O)Nc1cccc(N2CCN(CC3CCN(S(=O)(=O)c4ccc(F)cc4)CC3)CC2)c1 [N-(3-{4-[1-(4-Fluoro-benzenesulfonyl)-piperidin-4-ylmethyl]-piperazin-1-yl}-phenyl)-acetamide] | <10% | 13 nM | 49% | – | – | – | –
17 | CC(=O)Nc1cccc(N2CCN(CC3CCN(S(=O)(=O)C(C)C)CC3)CC2)c1 [N-(3-{4-[1-(Propane-2-sulfonyl)-piperidin-4-ylmethyl]-piperazin-1-yl}-phenyl)-acetamide] | <10% | 112 nM | <10% | – | – | – | –
18 | CC(=O)Nc1cccc(N2CCN(CCCCN(C)S(=O)(=O)CC3CCCCC3)CC2)c1 [N-(3-{4-[4-(Cyclohexylmethanesulfonyl-methyl-amino)-butyl]-piperazin-1-yl}-phenyl)-acetamide] | 47% | 1.3 nM | 37% | 616 nM | – | – | –
19 | Cc1ccc(S(=O)(=O)NCCCCN2CCN(c3cccc([N+](=O)[O-])c3)CC2)cc1 [4-Methyl-N-{4-[4-(3-nitro-phenyl)-piperazin-1-yl]-butyl}-benzenesulfonamide] | 14% | 125 nM | 56% | – | – | – | –
20 | O=C(Nc1cccc(N2CCN(CCCCNS(=O)(=O)CC3CCCCC3)CC2)c1)C1CC1 [Cyclopropanecarboxylic acid {3-[4-(4-cyclohexylmethanesulfonylamino-butyl)-piperazin-1-yl]-phenyl}-amide] | <10% | 8.9 nM | 22% | – | – | – | –
21 | CN(C)c1cccc(N2CCN(CC3CCN(S(=O)(=O)c4ccc(F)cc4)CC3)CC2)c1 [(3-{4-[1-(4-Fluoro-benzenesulfonyl)-piperidin-4-ylmethyl]-piperazin-1-yl}-phenyl)-dimethyl-amine] | 0% | 507 nM | 74% | – | – | – | –
22 | O=S(=O)(c1ccc(F)cc1)N1CCC(CN2CCN(c3ccccn3)CC2)CC1 [1-[1-(4-Fluoro-benzenesulfonyl)-piperidin-4-ylmethyl]-4-pyridin-2-yl-piperazine] | 68% | 21 nM | 42% | – | – | – | –
23 | CC(=O)Nc1cccc(N2CCN(CCCCNS(=O)(=O)CC3CCCCC3)CC2)c1 [N-{3-[4-(4-Cyclohexylmethanesulfonylamino-butyl)-piperazin-1-yl]-phenyl}-acetamide] | <10% | 5.1 to 11 nM | – | – | – | – | –
24 | O=S(=O)(CC1CCCCC1)NCCCCN1CCN(c2ccccn2)CC1 [C-Cyclohexyl-N-[4-(4-pyridin-2-yl-piperazin-1-yl)-butyl]-methanesulfonamide] | 51% | 6.5 nM | 81% | – | – | – | –
25 | Cc1ccc(S(=O)(=O)NCCCCN2CCN(c3cccc([N+](=O)[O-])c3)CC2)cc1 [4-Methyl-N-{4-[4-(3-nitro-phenyl)-piperazin-1-yl]-butyl}-benzenesulfonamide HCl salt] | – | 105 nM | – | – | – | 23% | 61%
26 | CN(C)c1cccc(N2CCN(CCCCNS(=O)(=O)CC3CCCCC3)CC2)c1 [C-Cyclohexyl-N-{4-[4-(3-dimethylamino-phenyl)-piperazin-1-yl]-butyl}-methanesulfonamide] | 25% | 110 nM | 85% | – | – | – | –
27 | COc1ccccc1N1CCN(CCCCNS(=O)(=O)CC2CCCCC2)CC1 [C-Cyclohexyl-N-{4-[4-(2-methoxy-phenyl)-piperazin-1-yl]-buty] [C-Cyclohexyl-N-{4-[4-(2-methoxy-phenyl)-piperazin-1-yl]-butyl}-methanesulfonamide] | – | – | 98% | – | – | – | –
28 | Cl.O=C(Nc1cccc(N2CCNCC2)c1)C1CC1 [Cyclopropanecarboxylic acid (3-piperazin-1-yl-phenyl)-amide HCl] | 14% | – | 0% | – | 4.6 nM | – | –
